Experimental data as given in patent publication US20230357249A1, “ANDROGEN RECEPTOR PROTEIN DEGRADERS WITH A TRICYCLIC CEREBLON LIGAND” (THE REGENTS OF THE UNIVERSITY OF MICHIGAN, priority 2020, published 2023).

Test system: AR protein
Assay: AR protein degradation in MDA-MB-453 cells, Western blotting
Type: cell-based
Parameters: key to AR protein degradation MDA-MB-453 10 nM: A: >90% degradation (24 hr treatment); B: >50% degradation but <90% (24 hr treatment); C: >10% degradation but <50% (24 hr treatment); D: No significant degradation (24 hr treatment)
Settings: 24 hr treatment
Protocol: The appropriate cell line, e.g., prostate cancer LNCaP, Vcap, or 22RV1 cell line, was treated with Compounds of the Disclosure as indicated. The treated cells were lysed with RIPA buffer. The AR level in the cell lysates was examined by western blotting and a specific AR antibody (ab194196, Abcam, Cambridge, MA 02139) with concentration of 1:20,000. GAPDH was used as a loading control.
Bands were quantified with ImageJ software. The relative numbers of each band obtained from normalization with its corresponding GAPDH level were compared with Prism 8 software. The DC50 values were produced from Prism 8, and the DC90 values were calculated with an equation=Bottom + (Top-Bottom)/(1+10^((LogEC50-X)*HillSlope) based on DC50 and Hillslope values.
The amount of AR protein degradation in VCap and MDA-MB-453 cells caused by representative Compounds of the Disclosure at the concentrations indicated is presented in Table 4, FIG. 1, and FIG. 2.

## N#Cc1ccc(O[C@H]2CC[C@H](N3Cc4cc(N5CCN(CC(=O)N6CCc7cc8c(cc7C6)C(=O)N(C6CCC(=O)NC6=O)C8=O)CC5)ccc4C3=O)CC2)cc1Cl (some centres unmarked) [compound 3]
  AR protein degradation MDA-MB-453 10 nM: D
  AR protein degradation MDA-MB-453 100 nM: C (>10% degradation but <50% (24 hr treatment))

## CC1(C)[C@H](Oc2ccc(C#N)c(Cl)c2)C(C)(C)[C@H]1N1Cc2cc(N3CCN(CC(=O)N4CCc5cc6c(cc5C4)C(=O)N(C4CCC(=O)NC4=O)C6=O)CC3)ccc2C1=O (some centres unmarked) [compound 1]
  AR protein degradation MDA-MB-453 10 nM: D
  AR protein degradation MDA-MB-453 100 nM: C (>10% degradation but <50% (24 hr treatment))

## CC1(C)[C@H](Oc2ccc(C#N)c(Cl)c2)C(C)(C)[C@H]1N1Cc2cc(N3CCN(CC(=O)N4Cc5cc6c(cc5C4)C(=O)N(C4CCC(=O)NC4=O)C6=O)CC3)ccc2C1=O (some centres unmarked) [compound 2]
  AR protein degradation MDA-MB-453 10 nM: D
  AR protein degradation MDA-MB-453 100 nM: C (>10% degradation but <50% (24 hr treatment))

## N#Cc1ccc(O[C@H]2CC[C@H](N3Cc4cc(N5CCN(CC(=O)N6Cc7cc8c(cc7C6)C(=O)N(C6CCC(=O)NC6=O)C8=O)CC5)ccc4C3=O)CC2)cc1Cl (some centres unmarked) [compound 4]
  AR protein degradation MDA-MB-453 10 nM: B (>50% degradation but <90% (24 hr treatment))
  AR protein degradation MDA-MB-453 100 nM: A (>90% degradation (24 hr treatment))
